Assay results from the NIST ThermoML archive (doi:10.1021/acs.jced.7b00039).
Numbers after ± are expanded uncertainties.

Columns and labels:
[1] = wn = mass fraction of the nth substance listed; conditions: 100 kPa, Liquid; for viscosity: Cone and plate viscometry; for mass density: Vibrating tube method
[2] = 100 kPa, Liquid; for viscosity: Cone and plate viscometry; for mass density: Vibrating tube method

O [water] + CC(CC(C)(C)C)CP(=O)([O-])CC(C)CC(C)(C)C.CCCCCCCCCCCCCC[P+](CCCCCC)(CCCCCC)CCCCCC
[1], w1 = 1
Conditions | mass density [kg/m3] | viscosity [mPa·s]
298 K | – | 0.89 ± 0.089
310 K | 993.35 ± 9.9 | 0.686 ± 0.069
318 K | – | 0.581 ± 0.058

CC(CC(C)(C)C)CP(=O)([O-])CC(C)CC(C)(C)C.CCCCCCCCCCCCCC[P+](CCCCCC)(CCCCCC)CCCCCC + O
[1]
Conditions | mass density, 298 K [kg/m3] | mass density, 310 K [kg/m3] | mass density, 318 K [kg/m3] | viscosity, 298 K [mPa·s] | viscosity, 310 K [mPa·s] | viscosity, 318 K [mPa·s]
w2 = 0.00047 | 884.09 ± 9.7 | 876.93 ± 9.6 | 872.2 ± 9.5 | 1023 ± 120 | 521 ± 59 | 345 ± 38
w2 = 0.00122 | 884.98 ± 9.7 | 877.82 ± 9.6 | 873.07 ± 9.5 | 996 ± 120 | 512 ± 58 | 337 ± 37
w2 = 0.00289 | 886.11 ± 9.7 | 878.88 ± 9.6 | 874.07 ± 9.5 | 924 ± 110 | 476 ± 53 | 313 ± 34
w2 = 0.00582 | 886.78 ± 9.7 | 879.48 ± 9.6 | 874.64 ± 9.5 | 796 ± 92 | 401 ± 45 | 263 ± 28
w2 = 0.0147 | 887.75 ± 9.7 | 880.36 ± 9.6 | 875.46 ± 9.5 | 646 ± 74 | 321 ± 35 | 210 ± 23
w2 = 0.0317 | 890.65 ± 9.7 | 883.04 ± 9.6 | 878.08 ± 9.5 | 431 ± 48 | 211 ± 23 | 137 ± 14
w2 = 0.081 | 898.06 ± 9.6 | 890.2 ± 9.5 | 884.95 ± 9.4 | 261 ± 29 | 125 ± 13 | 81.6 ± 8.6
w2 = 0.142 | – | – | 893.78 ± 9.4 | – | – | 55.6 ± 6
w2 = 0.146 | – | 900.11 ± 9.5 | – | – | 79.7 ± 8.6 | –
w2 = 0.154 | – | – | – | 142 ± 15 | – | –
w2 = 0.156 | 909.07 ± 9.6 | – | – | 142 ± 15 | – | –

O [water]
[2]
Conditions | mass density [kg/m3] | viscosity [mPa·s]
298 K | – | 0.89 ± 0.089
310 K | 993.35 ± 9.9 | 0.686 ± 0.069
318 K | – | 0.581 ± 0.058

CC(CC(C)(C)C)CP(=O)([O-])CC(C)CC(C)(C)C.CCCCCCCCCCCCCC[P+](CCCCCC)(CCCCCC)CCCCCC
[2]
Conditions | mass density [kg/m3] | viscosity [mPa·s]
298 K | 883.68 ± 9.7 | 1023 ± 120
310 K | 876.52 ± 9.6 | 521 ± 59
318 K | 871.79 ± 9.5 | 345 ± 38
